Data: PubChem BioAssay (NCI)
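Compound exposure: 48 hours, 5 concentrations, 96-well plates. TGI denotes the concentration required for complete inhibition of growth.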

Experiments:
Assay in all cases: NCI tumour cell line growth inhibition, 48 h
786-0 renal = tested on: 786-0 renal
A549 NSCLC = tested on: A549 NSCLC
ACHN renal = tested on: ACHN renal
BT-549 breast = tested on: BT-549 breast
CAKI-1 renal = tested on: CAKI-1 renal
CCRF-CEM leukemia = tested on: CCRF-CEM leukemia
COLO 205 colon = tested on: COLO 205 colon
DU-145 prostate = tested on: DU-145 prostate
EKVX NSCLC = tested on: EKVX NSCLC
HCC-2998 colon = tested on: HCC-2998 colon
HCT-116 colon = tested on: HCT-116 colon
HCT-15 colon = tested on: HCT-15 colon
HL-60(TB) leukemia = tested on: HL-60(TB) leukemia
HOP-62 NSCLC = tested on: HOP-62 NSCLC
HOP-92 NSCLC = tested on: HOP-92 NSCLC
HT29 colon = tested on: HT29 colon
IGROV1 ovarian = tested on: IGROV1 ovarian
K-562 leukemia = tested on: K-562 leukemia
KM12 colon = tested on: KM12 colon
M14 melanoma = tested on: M14 melanoma
MALME-3M melanoma = tested on: MALME-3M melanoma
MCF7 breast = tested on: MCF7 breast
MDA-N = tested on: MDA-N
MOLT-4 leukemia = tested on: MOLT-4 leukemia
NCI-H226 lung = tested on: NCI-H226 lung
NCI-H23 lung = tested on: NCI-H23 lung
NCI-H460 lung = tested on: NCI-H460 lung
NCI-H522 lung = tested on: NCI-H522 lung
NCI/ADR-RES ovarian = tested on: NCI/ADR-RES ovarian
OVCAR-3 ovarian = tested on: OVCAR-3 ovarian
OVCAR-4 ovarian = tested on: OVCAR-4 ovarian
OVCAR-5 ovarian = tested on: OVCAR-5 ovarian
OVCAR-8 ovarian = tested on: OVCAR-8 ovarian
PC-3 prostate = tested on: PC-3 prostate
RPMI-8226 leukemia = tested on: RPMI-8226 leukemia
RXF 393 renal = tested on: RXF 393 renal
SF-268 CNS = tested on: SF-268 CNS
SF-295 CNS = tested on: SF-295 CNS
SF-539 CNS = tested on: SF-539 CNS
SK-MEL-2 melanoma = tested on: SK-MEL-2 melanoma
SK-MEL-28 melanoma = tested on: SK-MEL-28 melanoma
SK-MEL-5 melanoma = tested on: SK-MEL-5 melanoma
SK-OV-3 ovarian = tested on: SK-OV-3 ovarian
SN12C renal = tested on: SN12C renal
SNB-19 CNS = tested on: SNB-19 CNS
SNB-75 CNS = tested on: SNB-75 CNS
SR leukemia = tested on: SR leukemia
SW-620 colon = tested on: SW-620 colon
TK-10 renal = tested on: TK-10 renal
U251 CNS = tested on: U251 CNS
UACC-257 melanoma = tested on: UACC-257 melanoma
UACC-62 melanoma = tested on: UACC-62 melanoma
UO-31 renal = tested on: UO-31 renal
A498 renal = tested on: A498 renal
HS 578T breast = tested on: HS 578T breast
LOX IMVI melanoma = tested on: LOX IMVI melanoma
MDA-MB-231 breast = tested on: MDA-MB-231 breast
MDA-MB-435 = tested on: MDA-MB-435
T-47D breast = tested on: T-47D breast

## O=C1c2ccccc2C2=Nc3ccncc3CN12
786-0 renal
  TGI: > 100 µM
A549 NSCLC
  TGI: > 100 µM
ACHN renal
  TGI: > 100 µM
BT-549 breast
  TGI: > 100 µM
CAKI-1 renal
  TGI: > 100 µM
CCRF-CEM leukemia
  TGI: > 100 µM
COLO 205 colon
  TGI: > 100 µM
DU-145 prostate
  TGI: > 100 µM
EKVX NSCLC
  TGI: > 100 µM
HCC-2998 colon
  TGI: > 100 µM
HCT-116 colon
  TGI: > 100 µM
HCT-15 colon
  TGI: > 100 µM
HL-60(TB) leukemia
  TGI: > 100 µM
HOP-62 NSCLC
  TGI: > 100 µM
HOP-92 NSCLC
  TGI: > 100 µM
HT29 colon
  TGI: > 100 µM
IGROV1 ovarian
  TGI: > 100 µM
K-562 leukemia
  TGI: > 100 µM
KM12 colon
  TGI: > 100 µM
M14 melanoma
  TGI: > 100 µM
MALME-3M melanoma
  TGI: > 100 µM
MCF7 breast
  TGI: > 100 µM
MDA-N
  TGI: > 100 µM
MOLT-4 leukemia
  TGI: > 100 µM
NCI-H226 lung
  TGI: > 100 µM
NCI-H23 lung
  TGI: > 100 µM
NCI-H460 lung
  TGI: > 100 µM
NCI-H522 lung
  TGI: > 100 µM
NCI/ADR-RES ovarian
  TGI: > 100 µM
OVCAR-3 ovarian
  TGI: > 100 µM
OVCAR-4 ovarian
  TGI: > 100 µM
OVCAR-5 ovarian
  TGI: > 100 µM
OVCAR-8 ovarian
  TGI: > 100 µM
PC-3 prostate
  TGI: > 100 µM
RPMI-8226 leukemia
  TGI: > 100 µM
RXF 393 renal
  TGI: > 100 µM
SF-268 CNS
  TGI: > 100 µM
SF-295 CNS
  TGI: > 100 µM
SF-539 CNS
  TGI: > 100 µM
SK-MEL-2 melanoma
  TGI: > 100 µM
SK-MEL-28 melanoma
  TGI: > 100 µM
SK-MEL-5 melanoma
  TGI: > 100 µM
SK-OV-3 ovarian
  TGI: > 100 µM
SN12C renal
  TGI: > 100 µM
SNB-19 CNS
  TGI: > 100 µM
SNB-75 CNS
  TGI: > 100 µM
SR leukemia
  TGI: > 100 µM
SW-620 colon
  TGI: > 100 µM
TK-10 renal
  TGI: > 100 µM
U251 CNS
  TGI: > 100 µM
UACC-257 melanoma
  TGI: > 100 µM
UACC-62 melanoma
  TGI: > 100 µM
UO-31 renal
  TGI: > 100 µM

## O=c1[nH]c(=S)[nH]n1C(=S)n1[nH]c(=S)[nH]c1=O
786-0 renal
  TGI: > 100 µM
A498 renal
  TGI: > 100 µM
A549 NSCLC
  TGI: > 100 µM
ACHN renal
  TGI: > 100 µM
CAKI-1 renal
  TGI: > 100 µM
CCRF-CEM leukemia
  TGI: > 100 µM
COLO 205 colon
  TGI: > 100 µM
DU-145 prostate
  TGI: > 100 µM
EKVX NSCLC
  TGI: > 100 µM
HCC-2998 colon
  TGI: > 100 µM
HCT-116 colon
  TGI: > 100 µM
HCT-15 colon
  TGI: > 100 µM
HL-60(TB) leukemia
  TGI: > 100 µM
HOP-62 NSCLC
  TGI: > 100 µM
HOP-92 NSCLC
  TGI: > 100 µM
HS 578T breast
  TGI: > 100 µM
HT29 colon
  TGI: > 100 µM
IGROV1 ovarian
  TGI: > 100 µM
K-562 leukemia
  TGI: > 100 µM
KM12 colon
  TGI: > 100 µM
LOX IMVI melanoma
  TGI: > 100 µM
M14 melanoma
  TGI: > 100 µM
MALME-3M melanoma
  TGI: > 100 µM
MCF7 breast
  TGI: 40.6 µM
MDA-MB-231 breast
  TGI: > 100 µM
MDA-MB-435
  TGI: > 100 µM
MDA-N
  TGI: > 100 µM
MOLT-4 leukemia
  TGI: > 100 µM
NCI-H226 lung
  TGI: > 100 µM
NCI-H23 lung
  TGI: > 100 µM
NCI-H460 lung
  TGI: > 100 µM
NCI-H522 lung
  TGI: > 100 µM
NCI/ADR-RES ovarian
  TGI: > 100 µM
OVCAR-3 ovarian
  TGI: > 100 µM
OVCAR-4 ovarian
  TGI: > 100 µM
OVCAR-5 ovarian
  TGI: > 100 µM
OVCAR-8 ovarian
  TGI: > 100 µM
PC-3 prostate
  TGI: > 100 µM
RPMI-8226 leukemia
  TGI: > 100 µM
RXF 393 renal
  TGI: > 100 µM
SF-268 CNS
  TGI: > 100 µM
SF-295 CNS
  TGI: > 100 µM
SF-539 CNS
  TGI: > 100 µM
SK-MEL-2 melanoma
  TGI: > 100 µM
SK-MEL-28 melanoma
  TGI: > 100 µM
SK-MEL-5 melanoma
  TGI: > 100 µM
SN12C renal
  TGI: > 100 µM
SNB-19 CNS
  TGI: > 100 µM
SNB-75 CNS
  TGI: > 100 µM
SR leukemia
  TGI: > 100 µM
SW-620 colon
  TGI: > 100 µM
T-47D breast
  TGI: > 100 µM
TK-10 renal
  TGI: > 100 µM
U251 CNS
  TGI: > 100 µM
UACC-257 melanoma
  TGI: > 100 µM
UACC-62 melanoma
  TGI: > 100 µM
UO-31 renal
  TGI: > 100 µM
